Assay results from patent publication US20250195521A1 (Revolution Medicines, Inc., priority 2020, published 2025).
pEC50, pIC50: −log10 of the molar value. Like-named read-outs stand apart in the source and are kept apart here.

What was measured:
[1] = test system: K-Ras G12C (NCI-H358 cells); test: Potency assay: pERK in NCI-H358 cells; format: cell-based, human; conditions: read-out: pERK EC50 (H358 KRAS G12C)
Outline: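 Cells plated the day before were exposed for 4 h at 37° C, 5% CO2 to a 10-point, 3-fold DMSO dilution series (10 mM top stock), in duplicate. Phospho-ERK was read by AlphaLISA SureFire Ultra or by In-Cell Western with DRAQ5 DNA stain, and IC50 came from a 4-parameter sigmoidal fit.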

NCI-H358 (K-Ras G12C) = test: CellTiter-Glo cell viability assay, NCI-H358; format: cell-based, human
Outline: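 Viability is measured as ATP-dependent luminescence (CellTiter-Glo) five days into compound treatment. Responses are normalized to vehicle (DMSO) wells and fitted by four-parameter logistic regression.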

[2] = Homo sapiens, NCI-H358 cells, 4 hours
[3] = Homo sapiens, NCI-H358, 120 h, 5-day treatment; read-out: H358 Cell Viability assay data (K-Ras G12C, IC50)
[4] = Homo sapiens, NCI-H358, 120 h, read-out: H358 Cell Viability assay data (K-Ras G12C, IC50, uM), 5-day treatment
[5] = 5-day treatment; read-out: H358 Cell Viability assay data (K-Ras G12C, IC50)
[6] = read-out: H358 Cell Viability assay data (K-Ras G12C, IC50); 5-day treatment

SMILES | pEC50 [1, 2] | pIC50 (NCI-H358 (K-Ras G12C); [3]) | further results
C=CC(=O)N1CC[C@H](C(=O)N(C)[C@H](C(=O)N[C@H]2Cc3cccc(c3)-c3ccc4c(c3)c(c(-c3cccnc3[C@H](C)OC)n4CC)CC(C)(C)COC(=O)[C@@H]3CCCN(N3)C2=O)[C@@H](C)C(F)(F)F)C1 (atropisomer, axis not shown) [Compound A640] | > 5.30 | 7.00 to 8.00 | –
CCn1c(-c2cccnc2[C@H](C)OC)c2c3cc(ccc31)-c1csc(n1)C[C@H](NC(=O)[C@H](C(C)C)N(C)C(=O)N1CC[C@]3(CCN(C)C3=O)C1)C(=O)N1CCC[C@H](N1)C(=O)OCC(C)(C)C2 (single isomer, unassigned) [Compound A461] | > 5.30 | > 8.00 | –
C=CC(=O)N1CC[C@H](C(=O)N(C)[C@H](C(=O)N[C@H]2Cc3cc(N)cc(c3)-c3ccc4c(c3)c(c(-c3ccccc3COC)n4CC)CC(C)(C)COC(=O)[C@@H]3CCCN(N3)C2=O)C(C)C)C1 [Compound A2] | > 5.30 | < 5.00 | –
C=CC(=O)N1CC[C@H](C(=O)N(C)[C@H](C(=O)N[C@H]2Cc3cc(O)cc(c3)-c3ccc4c(c3)c(c(-c3ccc(CC(=O)O)nc3)n4CC)CC(C)(C)COC(=O)[C@@H]3CCCN(N3)C2=O)C(C)C)C1 [Compound A21] | – | – | pEC50 ([1]; Homo sapiens, NCI-H358, 4 h): > 5.30; IC50 (NCI-H358 (K-Ras G12C); [4]): > 10 µM
C=CC(=O)N1CC[C@H](C(=O)N(C)[C@H](C(=O)N[C@H]2Cc3cc(O)cc(c3)-c3ccc4c(c3)c(c(-c3ncccc3[C@H](C)OC)n4CC)CC(C)(C)COC(=O)[C@@H]3CCCN(N3)C2=O)C(C)C)C1 [Compound A22] | – | – | pEC50 ([1]; Homo sapiens, NCI-H358, 4 h): > 5.30; IC50 (NCI-H358 (K-Ras G12C); [4]): 0.01 to 0.1 µM
C=CC(=O)N1CC[C@H](C(=O)N(C)[C@H](C(=O)N[C@H]2Cc3cc(O)cc(c3)-c3ccc4c(c3)c(c(-c3ccccc3CCOC)n4C(C)(C)C#N)CC(C)(C)COC(=O)[C@@H]3CCCN(N3)C2=O)C(C)C)C1 [Compound A34] | – | – | pEC50 ([1]; NCI-H358 cells, 4 hours): > 5.30; pIC50 (NCI-H358 (K-Ras G12C); [5]): 7.00 to 8.00
CCn1c(-c2cnccc2COC)c2c3cc(ccc31)-c1cc(O)cc(c1)C[C@H](NC(=O)[C@H](C(C)C)N(C)C(=O)CN1CCOCC1)C(=O)N1CCC[C@H](N1)C(=O)OCC(C)(C)C2 [Compound A65] | > 5.30 | 6.00 to 7.00 | –
CCn1c(-c2ccccc2CCOC)c2c3cc(ccc31)-c1cc(O)cc(c1)C[C@H](NC(=O)[C@H](C(C)C)N(C)C(=O)CCN)C(=O)N1CCC[C@H](N1)C(=O)OCC(C)(C)C2 [Compound A70] | > 5.30 | 7.00 to 8.00 | –
CCn1c(-c2cnccc2COC)c2c3cc(ccc31)-c1cc(O)cc(c1)C[C@H](NC(=O)[C@H](C(C)C)N(C)CC(F)(F)F)C(=O)N1CCC[C@H](N1)C(=O)OCC(C)(C)C2 [Compound A77] | > 5.30 | 7.00 to 8.00 | –
CCn1c(-c2cnccc2COC)c2c3cc(ccc31)-c1cc(O)cc(c1)C[C@H](NC(=O)[C@H](C(C)C)N(C)C(=O)[C@@H]1CCCO1)C(=O)N1CCC[C@H](N1)C(=O)OCC(C)(C)C2 [Compound A91] | > 5.30 | > 8.00 | –
CCn1c(-c2cccnc2[C@H](C)OC)c2c3cc(ccc31)-c1cc(O)cc(c1)C[C@H](NC(=O)[C@H](C(C)C)N(C)C(=O)[C@H]1CCN(C(=O)CN(C)C)C1)C(=O)N1CCC[C@H](N1)C(=O)OCC(C)(C)C2 [Compound A95] | > 5.30 | 7.00 to 8.00 | –
CC#CC(=O)N1CC[C@H](C(=O)N(C)[C@H](C(=O)N[C@H]2Cc3cc(O)cc(c3)-c3ccc4c(c3)c(c(-c3cccnc3[C@H](C)OC)n4CC)CC(C)(C)COC(=O)[C@@H]3CCCN(N3)C2=O)C(C)C)C1 [Compound A145, (2S)-2-{1-[(3S)-1-(but-2-ynoyl)pyrrolidin-3-yl]-N-methylformamido}-N-[(8S,14S,20M)-22-ethyl-4-hydroxy-21-{2-[(1S)-1-methoxyethyl]pyridin-3-yl}-18, 18-dimethyl-9,15-dioxo-16-oxa-10,22,28-triazapentacyclo [18.5.2.1^2,6.1^10,14.0^23,27]nonacosa-1 (26),2,4,6 (29),20,23 (27),24-heptaen-8-yl]-3-methylbutanamide] | – | – | pEC50 ([1]; Homo sapiens, NCI-H358, 4 h): > 5.30; IC50 (NCI-H358 (K-Ras G12C); [4]): < 0.01 µM; pIC50 (NCI-H358 (K-Ras G12C); [6]): 7.00 to 8.00
CCn1c(-c2cccnc2[C@H](C)OC)c2c3cc(ccc31)-c1cc(O)cc(c1)C[C@H](NC(=O)[C@H](C(C)C)N(C)C(=O)C13CNCC1C3)C(=O)N1CCC[C@H](N1)C(=O)OCC(C)(C)C2 (stereo partly shown) [Compound A155] | > 5.30 | > 8.00 | pIC50 (NCI-H358 (K-Ras G12C); [5]): 7.00 to 8.00
CCn1c(-c2cccnc2[C@H](C)OC)c2c3cc(ccc31)-c1cc(O)cc(c1)C[C@H](NC(=O)[C@H](C(C)C)N(C)C(=O)C1CC13CC3)C(=O)N1CCC[C@H](N1)C(=O)OCC(C)(C)C2 (stereo partly shown) [Compound A156] | > 5.30 | 7.00 to 8.00 | –
CC#CC(=O)N1CC[C@H](C(=O)N(C)[C@@H](C(=O)N[C@H]2Cc3cc(O)cc(c3)-c3ccc4c(c3)c(c(-c3cccnc3[C@H](C)OC)n4CC)CC(C)(C)COC(=O)[C@@H]3CCCN(N3)C2=O)C(C)C)C1 [Compound A199] | – | – | pEC50 ([1]; Homo sapiens, NCI-H358, 4 h): > 5.30; pIC50 (NCI-H358 (K-Ras G12C); [6]): 6.00 to 7.00
CCn1c(-c2cccnc2[C@H](C)OC)c2c3cc(ccc31)-c1cccc(c1)C[C@H](NC(=O)[C@H](C(C)C)N(C)C(=O)[C@H]1CCN(C(=O)/C=C/CN3CC(OC)C3)C1)C(=O)N1CCC[C@H](N1)C(=O)OCC(C)(C)C2 [Compound A203] | – | – | pEC50 ([1]; NCI-H358 cells, 4 hours): > 5.30; pIC50 (NCI-H358 (K-Ras G12C); [5]): < 5.00
CCn1c(-c2cccnc2[C@H](C)OC)c2c3cc(ccc31)-c1cc(O)cc(c1)C[C@H](NC(=O)[C@H](C(C)C)N(C)C(=O)C1(CO)CC1)C(=O)N1CCC[C@H](N1)C(=O)OCC(C)(C)C2 [Compound A232] | > 5.30 | 7.00 to 8.00 | –
C=CC(=O)N1CC[C@H](C(=O)N(C)[C@H](C(=O)N[C@H]2Cc3cc(sn3)-c3ccc4c(c3)c(c(-c3cccnc3[C@H](C)OC)n4CC)CC(C)(C)COC(=O)[C@@H]3CCCN(N3)C2=O)C(C)C)C1 [Compound A340] | > 5.30 | 6.00 to 7.00 | –
CCn1c(-c2cccnc2[C@H](C)OC)c2c3cc(ccc31)-c1csc(n1)C[C@H](NC(=O)[C@H](C(C)C)N(C)C(=O)N1CC3(CC(O)C3)C1)C(=O)N1CCC[C@H](N1)C(=O)OCC(C)(C)C2 [Compound A510] | > 5.30 | 7.00 to 8.00 | –
C=CC(=O)N1CC[C@H](C(=O)N(C)[C@H](C(=O)N[C@H]2Cc3cccc(c3)-c3ccc4c(c3)c(c(-c3cc(C5CCN(C)CC5)cnc3[C@H](C)OC)n4CC)CC(C)(C)COC(=O)[C@@H]3CCCN(N3)C2=O)C(C)C)C1 [Compound A515] | – | > 8.00 | –
C=CC(=O)N1CC[C@H](C(=O)N(C)[C@H](C(=O)N[C@H]2Cc3nc(cs3)-c3ccc4c(c3)c(c(-c3cc(C5=CCN(C)CC5)cnc3[C@H](C)OC)n4CC)CC(C)(C)COC(=O)[C@@H]3CCCN(N3)C2=O)C(C)C)C1 [Compound A520] | – | – | pIC50 (NCI-H358 (K-Ras G12C); [5]): > 8.00
C=CC(=O)N1CC[C@H](C(=O)N(C)[C@H](C(=O)N[C@H]2Cc3cccc(c3)-c3ccc4c(c3)c(c(-c3cc(CN(C)C)cnc3[C@H](C)OC)n4CC)CC(C)(C)COC(=O)[C@@H]3CCCN(N3)C2=O)C(C)C)C1 [Compound A523] | – | – | pIC50 (NCI-H358 (K-Ras G12C); [5]): 6.00 to 7.00

More lines, main results first:

pEC50 [1, 2] | pIC50 (NCI-H358 (K-Ras G12C); [3]) | SMILES | further results
> 5.30 | 6.00 to 7.00 | CCn1c(-c2cccnc2[C@H](C)OC)c2c3cc(ccc31)-c1cc(O)cc(c1)C[C@H](NC(=O)[C@H](C(C)C)N(C)C(=O)C1COC1)C(=O)N1CCC[C@H](N1)C(=O)OCC(C)(C)C2 [Compound A18] | –
> 5.30 | < 5.00 | C=CC(=O)N1CC[C@H](C(=O)N(C)[C@H](C(=O)N[C@H]2Cc3cc(O)cc(c3)-c3ccc4c(c3)c(c(-c3ccccc3CCOC)n4CC)CC(C)(C)COC(=O)[C@@H]3CCCN(N3)C2=O)C(C)C)C1 [Compound A24] | –
> 5.30 | 7.00 to 8.00 | CCn1c(-c2cnccc2COC)c2c3cc(ccc31)-c1cc(O)cc(c1)C[C@H](NC(=O)[C@H](C(C)C)N(C)C(=O)N1CC(OC)C1)C(=O)N1CCC[C@H](N1)C(=O)OCC(C)(C)C2 [Compound A30] | –
> 5.30 | 6.00 to 7.00 | CCn1c(-c2cnccc2COC)c2c3cc(ccc31)-c1cc(O)cc(c1)C[C@H](NC(=O)[C@H](C(C)C)N(C)C(=O)[C@@H]1CN(C(C)=O)C[C@@H]1C(F)(F)F)C(=O)N1CCC[C@H](N1)C(=O)OCC(C)(C)C2 [Compound A80] | –
> 5.30 | – | CCn1c(-c2cccnc2[C@H](C)OC)c2c3cc(ccc31)-c1cccc(c1)C[C@H](NC(=O)[C@H](C(C)C)N(C)C(=O)[C@H]1CCN(C(=O)/C=C/CN3CC(OC)C3)C1)C(=O)N1CCC[C@H](N1)C(=O)OCC(C)(C)C2 [Compound A204] | pIC50 (NCI-H358 (K-Ras G12C); [5]): 7.00 to 8.00
> 5.30 | > 8.00 | CCn1c(-c2cccnc2[C@H](C)OC)c2c3cc(ccc31)-c1cc(O)cc(c1)C[C@H](NC(=O)[C@H](C(C)C)N(C)C(=O)[C@H]1CCN(C(=O)[C@@H]3CCCN3C)C1)C(=O)N1CCC[C@H](N1)C(=O)OCC(C)(C)C2 [Compound A385] | –
– | 7.00 to 8.00 | CCn1c(-c2cccnc2[C@H](C)OC)c2c3cc(ccc31)-c1csc(n1)C[C@H](NC(=O)[C@H](C(C)C)N(C)C(=O)N1C3CC1CN(C)C3)C(=O)N1CCC[C@H](N1)C(=O)OCC(C)(C)C2 [Compound A541] | –
– | > 8.00 | CO[C@@H](COC1CN(C(=O)C#CC(C)(C)N(C)C)C1)C(=O)N[C@H]1Cc2cccc(c2)-c2ccc3c(c2)c(c(-c2cccnc2[C@H](C)OC)n3CC(F)(F)F)CC(C)(C)COC(=O)[C@@H]2CCCN(N2)C1=O [Compound A556] | –
– | > 8.00 | CCn1c(-c2cccnc2[C@H](C)OC)c2c3cc(ccc31)-c1cccc(c1)C[C@H](NC(=O)[C@H](C(C)C)N1CC[C@]3(CCN(C(=O)C#C[C@]4(N(C)C)CCOC4)C3)C1=O)C(=O)N1CCC[C@H](N1)C(=O)OCC(C)(C)C2 [Compound A559] | –
